From ChEMBL document CHEMBL4414590, “Discovery of SIAIS178 as an Effective BCR-ABL Degrader by Recruiting Von Hippel-Lindau (VHL) E3 Ubiquitin Ligase” (J Med Chem, 2019)
Calls of active or inactive are those of the source. The calls are words filed in the database; no cut-off is given here.

How the values were obtained:
K562 [1] = experiment: Growth inhibition of human K562 cells incubated for 2 days by CCK8 assay; format: functional, cell-based; settings: K562, 48 h
[2] = target: Tyrosine-protein kinase ABL1 (Homo sapiens) (UniProt P00519); experiment: Binding affinity to human phosphorylated ABL1 (S229 to K512 residues) expressed in mammalian expression system assessed as residual binding level at 10 uM by Kinomescan method relative to control
Chain of Tyrosine-protein kinase ABL1 (Homo sapiens) (P00519 whole entry, the tested form may be a part): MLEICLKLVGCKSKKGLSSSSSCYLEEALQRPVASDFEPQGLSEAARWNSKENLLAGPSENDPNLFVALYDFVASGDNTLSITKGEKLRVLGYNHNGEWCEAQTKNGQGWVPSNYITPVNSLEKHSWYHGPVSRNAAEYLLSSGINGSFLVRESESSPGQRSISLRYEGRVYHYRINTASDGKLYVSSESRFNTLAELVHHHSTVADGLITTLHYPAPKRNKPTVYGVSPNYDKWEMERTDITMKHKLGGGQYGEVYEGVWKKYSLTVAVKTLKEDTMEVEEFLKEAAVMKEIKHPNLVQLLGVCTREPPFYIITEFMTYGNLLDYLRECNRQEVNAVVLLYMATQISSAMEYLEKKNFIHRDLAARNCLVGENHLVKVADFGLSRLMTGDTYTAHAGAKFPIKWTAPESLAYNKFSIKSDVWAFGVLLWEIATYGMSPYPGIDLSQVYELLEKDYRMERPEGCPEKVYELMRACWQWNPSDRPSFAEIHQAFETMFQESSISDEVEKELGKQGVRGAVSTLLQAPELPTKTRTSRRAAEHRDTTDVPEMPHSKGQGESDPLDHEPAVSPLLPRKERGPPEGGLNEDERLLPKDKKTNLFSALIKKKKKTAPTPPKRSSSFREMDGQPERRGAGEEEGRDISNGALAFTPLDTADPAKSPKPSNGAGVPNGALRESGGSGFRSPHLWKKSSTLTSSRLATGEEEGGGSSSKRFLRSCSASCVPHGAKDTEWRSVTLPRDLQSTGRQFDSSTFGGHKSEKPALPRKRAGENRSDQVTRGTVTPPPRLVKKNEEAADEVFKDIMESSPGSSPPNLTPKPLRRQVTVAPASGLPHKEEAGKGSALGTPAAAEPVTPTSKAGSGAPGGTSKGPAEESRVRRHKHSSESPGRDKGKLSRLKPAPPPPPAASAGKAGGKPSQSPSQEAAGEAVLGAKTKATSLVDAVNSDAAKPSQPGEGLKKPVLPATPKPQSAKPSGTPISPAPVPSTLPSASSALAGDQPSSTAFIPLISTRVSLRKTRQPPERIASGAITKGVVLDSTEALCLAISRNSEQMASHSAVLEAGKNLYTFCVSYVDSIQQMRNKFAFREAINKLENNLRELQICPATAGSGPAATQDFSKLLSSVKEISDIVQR

[3] = target: Tyrosine-protein kinase ABL1 (Homo sapiens) (UniProt P00519); experiment: Binding affinity to human non-phosphorylated ABL1 (S229 to K512 residues) expressed in mammalian expression system assessed as residual binding level at 10 uM by Kinomescan method relative to control
[4] = Permeability in human Caco2 cells at 10 uM incubated for 120 mins by LC-MS/MS analysis; format: ADME, cell-based; settings: caco-2, 2 h
[5] = target: T1, von Hippel-Lindau disease tumor suppressor/Tyrosine-protein kinase ABL1/Breakpoint cluster region protein (Homo sapiens, UniProt P00519+P11274+P40337); experiment: Induction of ternary complex formation between VHL and BCR-ABL (unknown origin) expressed in HEK293 cells expressing N-terminal BCR-ABL LgBit fusion protein and N-terminal SmBit-VHL fusion protein incubated for 1 hr by NanoBit technology based luciferase complementation assay; format: cell-based
Target sequence in this assay (P00519 whole entry, looked up, the tested form may be a part): as the sequence (P00519 whole entry, the tested form may be a part) above
Target sequence in this assay (P11274 whole entry, looked up, the tested form may be a part): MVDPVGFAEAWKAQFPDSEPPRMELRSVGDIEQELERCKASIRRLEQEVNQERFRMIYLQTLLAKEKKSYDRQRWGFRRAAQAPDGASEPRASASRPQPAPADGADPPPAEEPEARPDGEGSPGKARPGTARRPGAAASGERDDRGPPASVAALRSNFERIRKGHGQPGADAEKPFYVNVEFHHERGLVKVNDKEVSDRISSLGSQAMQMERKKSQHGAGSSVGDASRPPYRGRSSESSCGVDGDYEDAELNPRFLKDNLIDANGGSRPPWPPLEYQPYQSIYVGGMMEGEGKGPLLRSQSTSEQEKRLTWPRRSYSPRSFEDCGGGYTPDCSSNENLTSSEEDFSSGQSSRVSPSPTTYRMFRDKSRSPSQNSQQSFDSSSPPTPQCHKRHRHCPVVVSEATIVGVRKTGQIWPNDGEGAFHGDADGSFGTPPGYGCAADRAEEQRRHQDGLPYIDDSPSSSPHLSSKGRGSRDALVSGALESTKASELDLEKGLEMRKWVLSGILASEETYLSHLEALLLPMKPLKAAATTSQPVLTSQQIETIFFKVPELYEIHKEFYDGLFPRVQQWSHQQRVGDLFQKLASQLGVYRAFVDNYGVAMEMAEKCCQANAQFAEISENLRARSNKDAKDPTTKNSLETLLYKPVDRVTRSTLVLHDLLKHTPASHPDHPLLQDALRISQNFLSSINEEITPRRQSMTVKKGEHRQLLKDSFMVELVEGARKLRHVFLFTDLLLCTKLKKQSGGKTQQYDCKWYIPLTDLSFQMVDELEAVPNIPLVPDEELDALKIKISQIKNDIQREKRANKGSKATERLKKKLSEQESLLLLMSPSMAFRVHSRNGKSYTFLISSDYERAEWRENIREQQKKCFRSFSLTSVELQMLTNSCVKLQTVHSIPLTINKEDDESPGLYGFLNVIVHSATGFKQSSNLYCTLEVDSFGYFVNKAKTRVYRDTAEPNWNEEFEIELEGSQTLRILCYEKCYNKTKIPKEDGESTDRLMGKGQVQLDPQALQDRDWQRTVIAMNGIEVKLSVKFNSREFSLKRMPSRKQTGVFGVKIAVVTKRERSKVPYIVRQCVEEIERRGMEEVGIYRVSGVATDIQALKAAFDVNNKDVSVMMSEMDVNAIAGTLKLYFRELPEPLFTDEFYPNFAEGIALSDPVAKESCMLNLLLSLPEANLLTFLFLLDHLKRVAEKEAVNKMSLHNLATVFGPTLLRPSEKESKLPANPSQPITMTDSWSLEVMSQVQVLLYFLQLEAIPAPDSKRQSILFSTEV
Target sequence in this assay (P40337 whole entry, looked up, the tested form may be a part): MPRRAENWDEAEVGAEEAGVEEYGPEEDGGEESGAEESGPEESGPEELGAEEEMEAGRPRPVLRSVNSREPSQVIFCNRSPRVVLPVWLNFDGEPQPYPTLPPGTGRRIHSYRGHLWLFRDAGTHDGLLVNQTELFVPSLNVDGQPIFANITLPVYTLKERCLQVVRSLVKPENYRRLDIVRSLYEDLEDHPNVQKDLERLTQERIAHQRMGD

[6] = target: T1, von Hippel-Lindau disease tumor suppressor/Tyrosine-protein kinase ABL1/Breakpoint cluster region protein; experiment: Protac activity against VHL/BCR-ABL in human K562 cells assessed as induction of BCR-ABL degradation by Western blot analysis; format: cell-based
Target sequence in this assay (P00519 whole entry, the tested form may be a part): as the sequence (P00519 whole entry, the tested form may be a part) above
Target sequence in this assay (P11274 whole entry, the tested form may be a part): as the sequence (P11274 whole entry, looked up, the tested form may be a part) above
Target sequence in this assay (P40337 whole entry, the tested form may be a part): as the sequence (P40337 whole entry, looked up, the tested form may be a part) above

[7] = target: T2, Bcr/Abl fusion protein (Homo sapiens) (UniProt P00519+P11274); experiment: Inhibition of BCR-ABL phosphorylation in human K562 cells at 1 to 100 nM by Western blot analysis; format: cell-based
T2 sequence (P00519 whole entry, looked up, the tested form may be a part): as the sequence (P00519 whole entry, the tested form may be a part) above
T2 sequence (P11274 whole entry, looked up, the tested form may be a part): as the sequence (P11274 whole entry, looked up, the tested form may be a part) above

[8] = target: T1, von Hippel-Lindau disease tumor suppressor/Tyrosine-protein kinase ABL1/Breakpoint cluster region protein; experiment: Protac activity against VHL/BCR-ABL in human K562 cells assessed as induction of BCR-ABL degradation at 1 to 100 nM by Western blot analysis; format: cell-based
Target sequence in this assay (P00519 whole entry, looked up, the tested form may be a part): as the sequence (P00519 whole entry, the tested form may be a part) above
Target sequence in this assay (P11274 whole entry, looked up, the tested form may be a part): as the sequence (P11274 whole entry, looked up, the tested form may be a part) above
Target sequence in this assay (P40337 whole entry, looked up, the tested form may be a part): as the sequence (P40337 whole entry, looked up, the tested form may be a part) above

[9] = target: T2, Bcr/Abl fusion protein (Homo sapiens); experiment: Inhibition of BCR-ABL in human K562 cells assessed as reduction in STAT5 phosphorylation at 1 to 100 nM by Western blot analysis; format: cell-based
[10] = target: T1, von Hippel-Lindau disease tumor suppressor/Tyrosine-protein kinase ABL1/Breakpoint cluster region protein; experiment: Induction of ternary complex formation between VHL and BCR-ABL (unknown origin) expressed in HEK293 cells expressing N-terminal BCR-ABL LgBit fusion protein and N-terminal SmBit-VHL fusion protein at 1 uM incubated for 1 hr by NanoBit technology based luciferase complementation assay; format: cell-based
Target sequence in this assay (P00519 whole entry, looked up, the tested form may be a part): as the sequence (P00519 whole entry, the tested form may be a part) above
Target sequence in this assay (P11274 whole entry, looked up, the tested form may be a part): as the sequence (P11274 whole entry, looked up, the tested form may be a part) above
Target sequence in this assay (P40337 whole entry, looked up, the tested form may be a part): as the sequence (P40337 whole entry, looked up, the tested form may be a part) above

K562 [11] = experiment: Antitumor activity against luciferse expressing human K562 cells xenografted in NOD/SCID mouse assessed as attenuation of tumor progression at 5 to 15 mg/kg, ip QD for 12 days by serial volumetric analysis; format: functional, organism-based
Mus musculus = experiment: Inhibition of BCR-ABL phosphorylation in NOD/SCID mouse xenografted with luciferse expressing human K562 cells at 5 to 15 mg/kg, ip QD for 4 days by Western blotting analysis; format: functional, organism-based
[12] = target: T1, von Hippel-Lindau disease tumor suppressor/Tyrosine-protein kinase ABL1/Breakpoint cluster region protein; experiment: Protac activity against VHL/BCR-ABL in NOD/SCID mouse xenografted with luciferse expressing human K562 cells assessed as induction of BCR-ABL degradation at 15 mg/kg, ip QD for 4 days by Western blotting analysis; format: functional, organism-based
Target sequence in this assay (P00519 whole entry, looked up, the tested form may be a part): as the sequence (P00519 whole entry, the tested form may be a part) above
Target sequence in this assay (P11274 whole entry, looked up, the tested form may be a part): as the sequence (P11274 whole entry, looked up, the tested form may be a part) above
Target sequence in this assay (P40337 whole entry, looked up, the tested form may be a part): as the sequence (P40337 whole entry, looked up, the tested form may be a part) above

K562 [13] = experiment: Growth inhibition of human K562 cells assessed as reduction in cell density at 20 times IC50 incubated for 12 hrs followed by drug wash-out and incubation in drug-free medium up to 144 hrs by CCK8 assay; format: functional, cell-based
K562 [14] = experiment: Induction of cell death in human K562 cells assessed as reduction in cell viability at 20 times IC50 incubated for 12 hrs followed by drug wash-out and incubation in drug-free medium up to 144 hrs by CCK8 assay; format: functional, cell-based
K562 [15] = experiment: Antitumor activity against luciferse expressing human K562 cells xenografted in NOD/SCID mouse assessed as attenuation of tumor progression at 5 mg/kg, ip QD for 12 days by serial volumetric analysis; format: functional, organism-based

Cc1nc(Nc2ncc(C(=O)Nc3c(C)cccc3Cl)s2)cc(N2CCN(C(=O)CCOCCOCCOCCOCCOCCC(=O)N[C@H](C(=O)N3C[C@H](O)C[C@H]3C(=O)NCc3ccc(-c4scnc4C)cc3)C(C)(C)C)CC2)n1
IC50 (K562 [1]): 1610 nM

Cc1nc(Nc2ncc(C(=O)Nc3c(C)cccc3Cl)s2)cc(N2CCN(CCCCCNC(=O)CCCCCCCCC(=O)N[C@H](C(=O)N3C[C@H](O)C[C@H]3C(=O)NCc3ccc(-c4scnc4C)cc3)C(C)(C)C)CC2)n1
IC50 (K562 [1]): 6.9 nM

Cc1nc(Nc2ncc(C(=O)Nc3c(C)cccc3Cl)s2)cc(N2CCN(C(=O)CCOCCOCCOCCOCCC(=O)N[C@H](C(=O)N3C[C@H](O)C[C@H]3C(=O)NCc3ccc(-c4scnc4C)cc3)C(C)(C)C)CC2)n1
IC50 (K562 [1]): 2160 nM

Cc1nc(Nc2ncc(C(=O)Nc3c(C)cccc3Cl)s2)cc(N2CCN(CCCCCCOCCOCCOCCCCCC(=O)N[C@H](C(=O)N3C[C@H](O)C[C@H]3C(=O)NCc3ccc(-c4scnc4C)cc3)C(C)(C)C)CC2)n1
IC50 (K562 [1]): 3.4 nM

Cc1nc(Nc2ncc(C(=O)Nc3c(C)cccc3Cl)s2)cc(N2CCN(C(=O)CCCc3cn(CCCC(=O)N[C@H](C(=O)N4C[C@H](O)C[C@H]4C(=O)NCc4ccc(-c5scnc5C)cc4)C(C)(C)C)nn3)CC2)n1
IC50 (K562 [1]): 12 nM

Cc1nc(Nc2ncc(C(=O)Nc3c(C)cccc3Cl)s2)cc(N2CCN(C(=O)COCCOCCOCC(=O)N[C@H](C(=O)N3C[C@H](O)C[C@H]3C(=O)NCc3ccc(-c4scnc4C)cc3)C(C)(C)C)CC2)n1
Activity [2]: Active | Activity [3]: Active | permeability [4]: Permeable | Activity [5]: Active

Cc1nc(Nc2ncc(C(=O)Nc3c(C)cccc3Cl)s2)cc(N2CCN(C(=O)CCCCCCCCCCCCCCC(=O)N[C@H](C(=O)N3C[C@H](O)C[C@H]3C(=O)NCc3ccc(-c4scnc4C)cc3)C(C)(C)C)CC2)n1
IC50 (K562 [1]): 32.3 nM

Cc1nc(Nc2ncc(C(=O)Nc3c(C)cccc3Cl)s2)cc(N2CCN(C(=O)CNC(=O)CCCC(=O)N[C@H](C(=O)N3C[C@H](O)C[C@H]3C(=O)NCc3ccc(-c4scnc4C)cc3)C(C)(C)C)CC2)n1
IC50 (K562 [1]): 68.2 nM

Cc1nc(Nc2ncc(C(=O)Nc3c(C)cccc3Cl)s2)cc(N2CCN(C(=O)CCCCCC(=O)N[C@H](C(=O)N3C[C@H](O)C[C@H]3C(=O)NCc3ccc(-c4scnc4C)cc3)C(C)(C)C)CC2)n1
IC50 (K562 [1]): 37.6 nM | DC50 [6]: 17.9 nM

Cc1nc(Nc2ncc(C(=O)Nc3c(C)cccc3Cl)s2)cc(N2CCN(C(=O)CCCCCOCCOCCOCCCCCC(=O)N[C@H](C(=O)N3C[C@H](O)C[C@H]3C(=O)NCc3ccc(-c4scnc4C)cc3)C(C)(C)C)CC2)n1
IC50 (K562 [1]): 14.9 nM

Cc1nc(Nc2ncc(C(=O)Nc3c(C)cccc3Cl)s2)cc(N2CCN(C(=O)CCOCCOCCC(=O)N[C@H](C(=O)N3C[C@H](O)C[C@H]3C(=O)NCc3ccc(-c4scnc4C)cc3)C(C)(C)C)CC2)n1
IC50 (K562 [1]): 670 nM

Cc1nc(Nc2ncc(C(=O)Nc3c(C)cccc3Cl)s2)cc(N2CCN(C(=O)CCCCCCC(=O)N[C@H](C(=O)N3C[C@@H](O)C[C@H]3C(=O)NCc3ccc(-c4scnc4C)cc3)C(C)(C)C)CC2)n1
inhibition [7]: Active | Activity [8]: inactive | inhibition [9]: Active | Activity [10]: inactive | Activity (K562 [11]): inactive | inhibition (Mus musculus): Active | Activity [12]: inactive | growth inhibition (GI) (K562 [13]): inactive | Activity (K562 [14]): inactive

Cc1nc(Nc2ncc(C(=O)Nc3c(C)cccc3Cl)s2)cc(N2CCN(C(=O)CCC(=O)N[C@H](C(=O)N3C[C@H](O)C[C@H]3C(=O)NCc3ccc(-c4scnc4C)cc3)C(C)(C)C)CC2)n1
IC50 (K562 [1]): 78 nM | DC50 [6]: 611 nM

Cc1nc(Nc2ncc(C(=O)Nc3c(C)cccc3Cl)s2)cc(N2CCN(C(=O)CCCCCCCC(=O)N[C@H](C(=O)N3C[C@H](O)C[C@H]3C(=O)NCc3ccc(-c4scnc4C)cc3)C(C)(C)C)CC2)n1
IC50 (K562 [1]): 22.4 nM | DC50 [6]: 37.9 nM

Cc1nc(Nc2ncc(C(=O)Nc3c(C)cccc3Cl)s2)cc(N2CCN(C(=O)COCCOCC(=O)N[C@H](C(=O)N3C[C@H](O)C[C@H]3C(=O)NCc3ccc(-c4scnc4C)cc3)C(C)(C)C)CC2)n1
IC50 (K562 [1]): 2240 nM

Cc1nc(Nc2ncc(C(=O)Nc3c(C)cccc3Cl)s2)cc(N2CCN(C(=O)CCCCCCCCCCCCC(=O)N[C@H](C(=O)N3C[C@H](O)C[C@H]3C(=O)NCc3ccc(-c4scnc4C)cc3)C(C)(C)C)CC2)n1
IC50 (K562 [1]): 14.4 nM

Cc1nc(Nc2ncc(C(=O)Nc3c(C)cccc3Cl)s2)cc(N2CCN(C(=O)CCCCCCCCC(=O)N[C@H](C(=O)N3C[C@H](O)C[C@H]3C(=O)NCc3ccc(-c4scnc4C)cc3)C(C)(C)C)CC2)n1
IC50 (K562 [1]): 14.3 nM | DC50 [6]: 10.1 nM

Cc1nc(Nc2ncc(C(=O)Nc3c(C)cccc3Cl)s2)cc(N2CCN(C(=O)CCCCC(=O)N[C@H](C(=O)N3C[C@H](O)C[C@H]3C(=O)NCc3ccc(-c4scnc4C)cc3)C(C)(C)C)CC2)n1
IC50 (K562 [1]): 89 nM | DC50 [6]: 34.7 nM

Cc1nc(Nc2ncc(C(=O)Nc3c(C)cccc3Cl)s2)cc(N2CCN(C(=O)CCCCNC(=O)CCCCCCCCC(=O)N[C@H](C(=O)N3C[C@H](O)C[C@H]3C(=O)NCc3ccc(-c4scnc4C)cc3)C(C)(C)C)CC2)n1
IC50 (K562 [1]): 72 nM

Cc1nc(Nc2ncc(C(=O)Nc3c(C)cccc3Cl)s2)cc(N2CCN(CCO)CC2)n1 [DASATINIB]
IC50 (K562 [1]): 0.9 nM | Activity (K562 [15]): Active | growth inhibition (GI) (K562 [13]): inactive | Activity (K562 [14]): inactive

Cc1nc(Nc2ncc(C(=O)Nc3c(C)cccc3Cl)s2)cc(N2CCN(C(=O)CCOCCOCCOCCC(=O)N[C@H](C(=O)N3C[C@H](O)C[C@H]3C(=O)NCc3ccc(-c4scnc4C)cc3)C(C)(C)C)CC2)n1
IC50 (K562 [1]): 3430 nM

Cc1nc(Nc2ncc(C(=O)Nc3c(C)cccc3Cl)s2)cc(N2CCN(C(=O)CCCC(=O)N[C@H](C(=O)N3C[C@H](O)C[C@H]3C(=O)NCc3ccc(-c4scnc4C)cc3)C(C)(C)C)CC2)n1
IC50 (K562 [1]): 87 nM | DC50 [6]: 40.2 nM
